Patent US20230271940A1, “HETEROARYL SUBSTITUTED 3-(1-OXOISOINDOLIN-2-YL)PIPERIDINE-2,6-DIONE DERIVATIVES AND USES THEREOF” (Novartis AG, priority 2020, published 2023)

Target: IKZF1 (Homo sapiens, UniProt Q13422+Q96SW2)
Experiment: Prolabel quantification of IKZF1 protein levels in 293GT cells
Assay type: cell-based
Details: Prolabel assay
Procedure: (§1) The Prolabel system from DiscoverX was used to develop high-throughput and quantitative assays to measure changes in IKZF1, IKZF2 and GSPT1 protein levels in response to compounds. The prolabel tag was derived from the alpha fragment of beta galactosidase and has the following protein sequence: mssnslavvlqadwenpgvtqlnrlaahppfaswrnseeartdipsqqlislnge. The complementary fragment of beta-galactosidase (from DiscoverX), is added to the prolabel tag to form an active beta galactosidase enzyme whose activity can be precisely measured. In this way, the levels of a fusion protein with the prolabel tag can be quantified in cell lysates.
Lentiviral vectors, based on the Invitrogen pLenti6.2/V5 DEST backbone, were constructed that placed the prolabel tag upstream of IKZF1, IKZF2 or GSPT1 and expressed the fusion protein from a CMV promoter. […]
The levels of prolabel tagged fusion proteins in compound treated cell lines were measured as follows: […]
Day 3, Plates were removed from the incubator and allowed to equilibrate at r.t. for 30 minutes. […] Plates were incubated at r.t. for three hours and luminescence was read using an Envision reader (Perkin Elmer) Data was analyzed and visualized using the Spotfire software package.

Chain of IKZF1 (Q13422 whole entry): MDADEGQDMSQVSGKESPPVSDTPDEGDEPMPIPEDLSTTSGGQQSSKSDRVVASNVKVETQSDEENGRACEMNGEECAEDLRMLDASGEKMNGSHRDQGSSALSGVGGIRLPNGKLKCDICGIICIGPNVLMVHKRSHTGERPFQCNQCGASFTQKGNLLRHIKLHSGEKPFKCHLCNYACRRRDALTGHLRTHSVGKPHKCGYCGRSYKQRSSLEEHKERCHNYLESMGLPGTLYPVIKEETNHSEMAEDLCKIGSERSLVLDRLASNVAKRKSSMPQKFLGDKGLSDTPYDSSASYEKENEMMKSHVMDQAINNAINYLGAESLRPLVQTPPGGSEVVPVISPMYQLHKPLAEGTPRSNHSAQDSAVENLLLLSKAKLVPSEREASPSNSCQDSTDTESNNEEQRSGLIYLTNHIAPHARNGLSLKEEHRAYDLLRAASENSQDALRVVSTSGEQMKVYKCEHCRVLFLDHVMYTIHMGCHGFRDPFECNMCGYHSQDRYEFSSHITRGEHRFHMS
Chain of IKZF1 (Q96SW2 whole entry): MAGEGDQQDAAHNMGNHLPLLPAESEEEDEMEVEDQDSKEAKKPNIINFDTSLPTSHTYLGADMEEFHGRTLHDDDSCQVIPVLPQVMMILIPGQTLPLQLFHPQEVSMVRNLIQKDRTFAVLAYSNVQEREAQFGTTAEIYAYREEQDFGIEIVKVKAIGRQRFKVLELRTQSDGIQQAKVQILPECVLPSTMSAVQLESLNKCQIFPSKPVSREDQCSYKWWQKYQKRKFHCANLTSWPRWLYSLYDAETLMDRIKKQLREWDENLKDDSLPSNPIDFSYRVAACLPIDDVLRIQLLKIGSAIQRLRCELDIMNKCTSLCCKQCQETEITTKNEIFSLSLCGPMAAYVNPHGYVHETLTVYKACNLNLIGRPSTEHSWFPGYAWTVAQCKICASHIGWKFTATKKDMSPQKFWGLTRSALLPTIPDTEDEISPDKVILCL
Chain of IKZF1 (Q16531 whole entry partner): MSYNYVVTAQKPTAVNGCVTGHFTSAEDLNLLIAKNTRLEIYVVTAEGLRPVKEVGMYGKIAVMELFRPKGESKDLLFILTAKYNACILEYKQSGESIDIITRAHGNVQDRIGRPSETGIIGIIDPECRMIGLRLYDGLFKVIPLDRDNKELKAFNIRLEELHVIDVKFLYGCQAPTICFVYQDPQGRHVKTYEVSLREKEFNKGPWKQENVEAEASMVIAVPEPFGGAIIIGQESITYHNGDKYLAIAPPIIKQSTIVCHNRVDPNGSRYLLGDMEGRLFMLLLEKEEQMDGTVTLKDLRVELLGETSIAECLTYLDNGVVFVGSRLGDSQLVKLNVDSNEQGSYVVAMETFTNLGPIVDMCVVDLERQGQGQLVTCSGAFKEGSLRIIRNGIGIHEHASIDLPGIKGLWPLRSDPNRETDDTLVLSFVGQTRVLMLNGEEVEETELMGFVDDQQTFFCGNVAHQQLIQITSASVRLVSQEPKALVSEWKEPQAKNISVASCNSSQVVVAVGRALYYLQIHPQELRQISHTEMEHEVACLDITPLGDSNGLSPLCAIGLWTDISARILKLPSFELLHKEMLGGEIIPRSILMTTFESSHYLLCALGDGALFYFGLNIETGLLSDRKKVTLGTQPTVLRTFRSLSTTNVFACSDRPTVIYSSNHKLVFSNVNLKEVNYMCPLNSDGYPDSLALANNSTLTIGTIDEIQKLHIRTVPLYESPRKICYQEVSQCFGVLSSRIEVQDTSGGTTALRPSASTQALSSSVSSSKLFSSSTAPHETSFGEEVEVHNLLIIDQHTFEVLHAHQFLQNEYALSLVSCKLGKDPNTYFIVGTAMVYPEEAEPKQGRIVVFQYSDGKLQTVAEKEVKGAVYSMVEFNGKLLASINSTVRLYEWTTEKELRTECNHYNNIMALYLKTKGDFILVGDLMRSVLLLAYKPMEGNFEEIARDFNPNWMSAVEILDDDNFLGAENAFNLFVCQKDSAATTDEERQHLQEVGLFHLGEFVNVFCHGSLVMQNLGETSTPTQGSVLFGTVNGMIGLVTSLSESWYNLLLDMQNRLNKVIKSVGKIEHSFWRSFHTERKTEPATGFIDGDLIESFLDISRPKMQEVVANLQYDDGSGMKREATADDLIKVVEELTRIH

SMILES	IKZF1 degradation @ 10 μM
Nc1cccc2c1C(=O)N(C1CCC(=O)NC1=O)C2=O (stereo not shown) [Control, Pomalidomide]	(80%

Target: IKZF2 (Homo sapiens, UniProt Q96SW2+Q9UKS7)
Sequence (Q9UKS7 whole entry): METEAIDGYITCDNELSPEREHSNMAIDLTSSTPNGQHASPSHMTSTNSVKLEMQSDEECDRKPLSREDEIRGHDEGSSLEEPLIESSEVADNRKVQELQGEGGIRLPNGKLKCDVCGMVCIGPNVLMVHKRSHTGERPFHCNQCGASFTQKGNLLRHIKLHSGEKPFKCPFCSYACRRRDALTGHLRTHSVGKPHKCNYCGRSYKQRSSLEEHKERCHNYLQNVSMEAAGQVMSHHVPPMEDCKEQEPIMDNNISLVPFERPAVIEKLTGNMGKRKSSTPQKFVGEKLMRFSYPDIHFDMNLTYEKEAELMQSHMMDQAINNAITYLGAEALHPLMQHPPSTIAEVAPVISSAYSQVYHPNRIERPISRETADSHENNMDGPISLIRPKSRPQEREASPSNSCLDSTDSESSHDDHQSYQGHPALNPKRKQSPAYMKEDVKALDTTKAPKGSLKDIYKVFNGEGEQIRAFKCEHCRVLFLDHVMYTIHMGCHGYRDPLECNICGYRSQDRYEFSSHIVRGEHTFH
Sequence (Q96SW2 whole entry): as the sequence (Q96SW2 whole entry) above
Sequence (Q16531 whole entry partner): as the sequence (Q16531 whole entry partner) above
Experiment: Prolabel quantification of IKZF2 protein levels in 293GT cells
Assay type: cell-based
Details: not given
Procedure: as §1
Lentiviral vectors, based on the Invitrogen pLenti6.2/V5 DEST backbone, were constructed that placed the prolabel tag upstream of IKZF1, IKZF2 or GSPT1 and expressed the fusion protein from a CMV promoter.
To ensure moderate and consistent expression of the prolabel fusion proteins across all cells in the population, stable cell lines were constructed from cells expressing a single copy of the construct. Lentivirus packaged with the constructs was made using the Virapower kit from Invitrogen.
The levels of prolabel tagged fusion proteins in compound treated cell lines were measured as follows:
Day 1, Cells were diluted to 1.0×10^6 cells/ml in normal growth medium. 17.5 μL of cells were plated in each well of a solid white 384 well plate. Plates were incubated overnight in a 37° C. tissue culture incubator.
Day 2, Serial dilutions of compounds were made in 384 well plates from 10 mM stocks. 15 μL of DMSO was added to each well of a 384 well plate. In the first column, 15 μL of stock compound was added. The solution was mixed and 15 μL was transferred to the next column. This was repeated until 20 two-fold dilutions were prepared. 2.5 μL of diluted compounds were transferred into 60 μL of cell culture medium in another 384 well plate, and mixed well. […] of this mixture was added to the plated cells. The final DMSO concentration was 0.5% and the highest concentration of compound was 50 μM. Plates were incubated overnight (e.g., about 14 h, 18 h, or 24 h) in a 37° C. tissue culture incubator.
Day 3, Plates were removed from the incubator and allowed to equilibrate at r.t. for 30 minutes. Prolabel substrate (DiscoverX PathHunter Prolabel Detection Kit, User manual: 93-0180) was added as described by the manufacturers protocols. Plates were incubated at r.t. for three hours and luminescence was read using an Envision reader (Perkin Elmer) Data was analyzed and visualized using the Spotfire software package.

SMILES	IKZF2 % protein reduction at 10 μM, 24 h [%]
O=C1CCC(N2Cc3cc(-c4nc5[nH]c(=O)ccc5[nH]4)ccc3C2=O)C(=O)N1 (stereo not shown) [Compound I-6, 3-(1-oxo-5-(5-oxo-4,5-dihydro-1H-imidazo[4,5-b]pyridin-2-yl)isoindolin-2-yl)piperidine-2,6-dione]	75
CCn1nc(-c2ccc3c(c2)CN(C2CCC(=O)NC2=O)C3=O)cc1C(F)(F)F (stereo not shown) [Compound I-7, 3-(5-(1-ethyl-5-(trifluoromethyl)-1H-pyrazol-3-yl)-1-oxoisoindolin-2-yl)piperidine-2,6-dione]	10
CCNc1ccc(-c2ccc3c(c2)CN(C2CCC(=O)NC2=O)C3=O)nn1 (stereo not shown) [Compound I-22, 3-(5-(6-(ethylamino)pyridazin-3-yl)-1-oxoisoindolin-2-yl)piperidine-2,6-dione]	60
CO[C@H]1CC[C@H](Cc2ccc(-c3ccc4c(c3)CN(C3CCC(=O)NC3=O)C4=O)nn2)CC1 (stereo partly shown) [Compound I-25]	68
COc1cc(Cc2ccccc2)nnc1-c1ccc2c(c1)CN(C1CCC(=O)NC1=O)C2=O (stereo not shown) [Compound I-28, 3-(5-(6-benzyl-4-methoxypyridazin-3-yl)-1-oxoisoindolin-2-yl)piperidine-2,6-dione]	73
CCn1nc(-c2ccc3c(c2)CN(C2CCC(=O)NC2=O)C3=O)cc1OC (stereo not shown) [Compound I-34, 3-(5-(1-ethyl-5-methoxy-1H-pyrazol-3-yl)-1-oxoisoindolin-2-yl)piperidine-2,6-dione]	50
COc1cc(-c2ccc3c(c2)CN(C2CCC(=O)NC2=O)C3=O)nn1Cc1ccccc1 (stereo not shown) [Compound I-40, 3-(5-(1-benzyl-5-methoxy-1H-pyrazol-3-yl)-1-oxoisoindolin-2-yl)piperidine-2,6-dione]	80
O=C1CCC(N2Cc3cc(-c4cccnn4)ccc3C2=O)C(=O)N1 (stereo not shown) [Compound I-42, 3-(1-oxo-5-(pyridazin-3-yl)isoindolin-2-yl)piperidine-2,6-dione]	80
CCN(CC)Cc1ccc(-c2ccc3c(c2)CN(C2CCC(=O)NC2=O)C3=O)nn1 (stereo not shown) [Compound I-43, 3-(5-(6-((diethylamino)methyl)pyridazin-3-yl)-1-oxoisoindolin-2-yl)piperidine-2,6-dione]	40
O=C1CCC(N2Cc3cc(-c4nc5ncccc5[nH]4)ccc3C2=O)C(=O)N1 (stereo not shown) [Compound I-46, 3-(5-(1H-imidazo[4,5-b]pyridin-2-yl)-1-oxoisoindolin-2-yl)piperidine-2,6-dione]	80

Same assay, conditions: 10 μM, 24 h, Prolabel assay, 293GT cells

SMILES	IKZF2 % protein reduction at 10 μM, 24 h [%]
O=C1CCC(N2Cc3cc(-c4cn(Cc5ccccc5)cn4)ccc3C2=O)C(=O)N1 (stereo not shown) [Compound I-1, 3-(5-(1-benzyl-1H-imidazol-4-yl)-1-oxoisoindolin-2-yl)piperidine-2,6-dione]	0
Cc1c[nH]nc1-c1ccc2c(c1)CN(C1CCC(=O)NC1=O)C2=O (stereo not shown) [Compound I-3, 3-(5-(4-methyl-1H-pyrazol-3-yl)-1-oxoisoindolin-2-yl)piperidine-2,6-dione]	50
Cc1cc(-c2ccc3c(c2)CN(C2CCC(=O)NC2=O)C3=O)nn1Cc1ccccc1 (stereo not shown) [Compound I-4, 3-(5-(1-benzyl-5-methyl-1H-pyrazol-3-yl)-1-oxoisoindolin-2-yl)piperidine-2,6-dione]	50
Cc1cc(-c2ccc3c(c2)CN(C2CCC(=O)NC2=O)C3=O)nn1Cc1ccc(C#N)cc1 (stereo not shown) [Compound I-5, 4-((3-(2-(2,6-dioxopiperidin-3-yl)-1-oxoisoindolin-5-yl)-5-methyl-1H-pyrazol-1-yl)methyl)benzonitrile]	35
O=C1CCC(N2Cc3cc(-c4cc[nH]n4)ccc3C2=O)C(=O)N1 (stereo not shown) [Compound I-8, 3-(1-oxo-5-(1H-pyrazol-3-yl)isoindolin-2-yl)piperidine-2,6-dione]	10
O=C1CCC(N2Cc3cc(-c4ccn(Cc5ccccc5)n4)ccc3C2=O)C(=O)N1 (stereo not shown) [Compound I-9, 3-(5-(1-benzyl-1H-pyrazol-3-yl)-1-oxoisoindolin-2-yl)piperidine-2,6-dione]	20
CCn1nc(-c2ccc3c(c2)CN(C2CCC(=O)NC2=O)C3=O)c2ccccc21 (stereo not shown) [Compound I-11, 3-(5-(1-ethyl-1H-indazol-3-yl)-1-oxoisoindolin-2-yl)piperidine-2,6-dione]	30
O=C1CCC(N2Cc3cc(-c4nn(Cc5ccccc5)c5c4CCCC5)ccc3C2=O)C(=O)N1 (stereo not shown) [Compound I-15, 3-(5-(1-benzyl-4,5,6,7-tetrahydro-1H-indazol-3-yl)-1-oxoisoindolin-2-yl)piperidine-2,6-dione]	50
Cc1cc(-c2ccc3c(c2)CN(C2CCC(=O)NC2=O)C3=O)n[nH]1 (stereo not shown) [Compound I-16, 3-(5-(5-methyl-1H-pyrazol-3-yl)-1-oxoisoindolin-2-yl)piperidine-2,6-dione]	0
Cc1cn(Cc2ccccc2)nc1-c1ccc2c(c1)CN(C1CCC(=O)NC1=O)C2=O (stereo not shown) [Compound I-17, 3-(5-(1-benzyl-4-methyl-1H-pyrazol-3-yl)-1-oxoisoindolin-2-yl)piperidine-2,6-dione]	60
O=C1CCC(N2Cc3cc(-c4n[nH]c5ccccc45)ccc3C2=O)C(=O)N1 (stereo not shown) [Compound I-18, 3-(5-(1H-indazol-3-yl)-1-oxoisoindolin-2-yl)piperidine-2,6-dione]	40
O=C1CCC(N2Cc3cc(-c4nn(Cc5ccccc5)c5ccccc45)ccc3C2=O)C(=O)N1 (stereo not shown) [Compound I-19, 3-(5-(1-benzyl-1H-indazol-3-yl)-1-oxoisoindolin-2-yl)piperidine-2,6-dione]	0
CCNc1cnnc(-c2ccc3c(c2)CN(C2CCC(=O)NC2=O)C3=O)c1 (stereo not shown) [Compound I-21, 3-(5-(5-(ethylamino)pyridazin-3-yl)-1-oxoisoindolin-2-yl)piperidine-2,6-dione]	60
O=C1CCC(N2Cc3cc(-c4ccc(Cc5ccccc5)nn4)ccc3C2=O)C(=O)N1 (stereo not shown) [Compound I-24, 3-(5-(6-benzylpyridazin-3-yl)-1-oxoisoindolin-2-yl)piperidine-2,6-dione]	90
